Experimental data as given in US11155740B2, “Shale hydration inhibitor and method of use” (M-I L.L.C., priority 2014, dated 2021).

Test: OECD 306 marine biodegradation
From the text: In the following example, additive formulations were studied for biodegradability in order to quantify the suitability of the formulations for use in environmentally sensitive areas. One measure of sample toxicity is marine biodegradation data as outlined in Organization for Economic Cooperation and Development, Procedure OECD 306 or BODIS. Under OECD 306, the rules that governing offshore chemical use set forth three tests: bioaccumulation, biodegradation and toxicity. In order for a chemical to be used without restriction offshore in the North Sea it must satisfy two of the following three criteria: (1) biodegradation must be greater than 60%, if less than 20% it is automatically marked for substitution; (2) bioaccumulation as measured by octanol/water partitioning coefficient (log Po/w) must be below 3 (or have a molecular weight >700); and toxicity to the most sensitive marine species (often Skeletonema) must be greater than LC50 or EC50 of 10 ppm.
During the biodegradation testing, samples were formulated as show below in Table 4, where polyetheramine is a diamino-functionalized JEFFAMINE™.
Samples were then subjected to biodegradation and results were tabulated as shown below in Table 5. Comparative samples of sodium benzoate and ULTRAHIB™ PLUS, an amine-based shale inhibitor commercially available from M-I L.L.C., were also assayed.

O=C([O-])c1ccccc1.[Na+] [Sodium benzoate]
OECD 306 Biodegradation Day 7 (Day 7): 64% | OECD 306 Biodegradation Day 14 (Day 14): 71% | OECD 306 Biodegradation Day 21 (Day 21): 76% | OECD 306 Biodegradation Day 28 (Day 28): 78%
